Test results from the NIST ThermoML archive (doi:10.1021/je060146z).
± gives the expanded uncertainty stated by the source.

Settings: Crystal

Row | Normal melting temperature | SMILES
1 | 31.27 ± 1.2 °C | CCCCCCCCCC(=O)O [decanoic acid]
2 | 43.79 ± 1.2 °C | CCCCCCCCCCCC(=O)O [dodecanoic acid]
3 | 62.29 ± 1.2 °C | CCCCCCCCCCCCCCCC(=O)O [hexadecanoic acid]
4 | 68.76 ± 1.2 °C | CCCCCCCCCCCCCCCCCC(=O)O [octadecanoic acid]
5 | 54.33 ± 1.2 °C | CCCCCCCCCCCCCC(=O)O [tetradecanoic acid]
